Source: patent US8182527B2, “Heparin barrier coating for controlled drug release” (Cordis Corporation, priority 2001, dated 2012)

Legend:
[1] = format: physicochemical; settings: 0.02 weight percent per total basecoat solids
From the text: Referring to FIG. 75, there is illustrated in graphical format, the results of the same drug screening as described above with the solution applied to a cobalt-chromium, 18 mm stent. In this test, two sets of solution samples were utilized, one with sirolimus and polymer solution containing the antioxidant and one with sirolimus and polymer solution containing no antioxidant. The antioxidant utilized was 0.02 weight percent BHT per total basecoat solids. The test was utilized to determine the percent drug content change over a time period of 0 to 12 weeks under two conditions; namely, 40° C. with 75 percent relative humidity, and ambient conditions (25° C.).

[2] = Drug concentration in liquid formulations by liquid chromatography / HPLC; format: physicochemical
Method: Table 8, shown below, summarizes the concentrations of the excipient, the co-solvents and the drug for four different liquid formulations in accordance with exemplary embodiments of the present invention.
As set forth above, a liquid formulation comprising 4 mg/ml of sirolimus may be achieved utilizing PEG 200 as the excipient and ethanol and water as the co-solvents. […] The high concentration of sirolimus is necessary to maintain an effective and high local concentration of sirolimus after delivery to the site. The liquid formulations are flowable at room temperature and are compatible with a number of delivery devices. Specifically, each of these formulations were successfully injected through an infusion catheter designated by the brand name CRESCENDO™ from Cordis Corporation, Miami, Fla., as described in more detail subsequently, and the EndoBionics Micro Syringe™ Infusion Catheter available from EndoBionics, Inc., San Leandros, Calif., as described in more detail above, in porcine studies.
In another exemplary embodiment, the liquid formulation of sirolimus comprises water and ethanol as co-solvents and Vitamin E TPGS as the excipient. The liquid formulation was created utilizing the following process. Two hundred milligrams of sirolimus and two grams of ethanol were added to a pre-weighed twenty milliliter scintillation vial. […]

[3] = tested on: human coronary artery smooth muscle cells; assay: Anti-proliferative activity in non-synchronized cultured human coronary artery smooth muscle cells stimulated with two percent fetal bovine serum; format: cell-based; settings: for effect on the anti-proliferative rapamycin dose response curve: added to cells treated with rapamycin
From the text: The multiple curves represent various concentrations of mycophenolic acid ranging from zero to one thousand nanomolar concentrations. […] This potentiation observed in cultured coronary artery smooth muscle cells preferably translates to an enhancement in anti-restenotic efficacy following vascular injury and a reduction in the required amount of either agent to achieve the desired anti-restenotic effect.
FIG. 58 illustrates, in graphical format, the anti-proliferative activity of cladribine in non-synchronized cultured human coronary artery smooth muscle cells stimulated with two percent fetal bovine serum.
The multiple curves represent various concentrations of cladribine ranging from zero to nine hundred nanomolar concentrations. […] As illustrated, the percent inhibition increases substantially as the dose of cladribine increases.

[4] = tested on: human coronary artery smooth muscle cells; assay: Anti-proliferative activity in synchronized cultured human coronary artery smooth muscle cells stimulated with two percent fetal bovine serum; format: cell-based; settings: for effect on the anti-proliferative rapamycin dose response curve: added to cells treated with rapamycin
From the text: (§1) The multiple curves represent various concentrations of topotecan ranging from zero to three hundred nanomolar concentrations.
(§2) The multiple curves represent various concentrations of etoposide ranging from zero to eight hundred nanomolar concentrations.
The multiple curves represent various concentrations of Panzem® ranging from zero to 100 micromolar concentrations.

[5] = tested on: human coronary artery smooth muscle cell survival; assay: MTS cytotoxicity assay; format: cell-based; settings: 6.6 to 30,000.00 nanomolar tested
From the text: Typically, a control is utilized to determine baseline toxicity.

Cell viability assay = format: cell-based
From the text: as §1, §2

[6] = tested on: human coronary artery smooth muscle cell proliferation; assay: In vitro cell culture study of coronary artery smooth muscle cell proliferation (trichostatin A); format: cell-based
From the text: FIG. 51 is a graph of the inhibition of coronary artery smooth muscle cells by trichostatin A in a cell culture study.

SMILES: Cc1cc(C(C)(C)C)c(O)c(C(C)(C)C)c1 [BHT, Butylated Hydroxytoluene]
- effect on drug degradation on coated stent [1]: lessens drug degradation at both 8 weeks and 12 weeks under ambient conditions

SMILES: CO[C@H]1C[C@@H]2CC[C@@H](C)[C@@](O)(O2)C(=O)C(=O)N2CCCC[C@H]2C(=O)O[C@H]([C@H](C)C[C@@H]2CC[C@@H](OC(=O)C(C)(CO)CO)[C@H](OC)C2)CC(=O)[C@H](C)/C=C(\C)[C@@H](O)[C@@H](OC)C(=O)[C@H](C)C[C@H](C)/C=C/C=C/C=C/1C [CCI-779]
- concentration in the final solution (HPLC assay) ([2]; ethanol (less than two percent), Vitamin E TPGS and water): 15000 µg/mL

SMILES: Nc1nc(Cl)nc2c1ncn2[C@H]1C[C@H](O)[C@@H](CO)O1 [Cladribine, 2-chlorodeoxyadenosine]
- effect on the anti-proliferative rapamycin dose response curve [3]: potentiate the anti-proliferative activity of rapamycin
- inhibition of human coronary artery smooth muscle cell proliferation ([3]; two percent fetal bovine serum): completely inhibits

SMILES: COc1cc2c(cc1O)CC[C@@H]1[C@@H]2CC[C@]2(C)[C@@H](O)CC[C@@H]12 [Panzem®, 2-methoxyestradiol]
- effect on the anti-proliferative rapamycin dose response curve [4]: potentiation of rapamycin by Panzem®
- anti-proliferative activity ([4]; two percent fetal bovine serum, alone): extremely effective inhibitor of human coronary artery smooth muscle cell proliferation in vitro
- concentrations that do not reduce human coronary artery smooth muscle cell survival [5]: up to 30,000.00 nanomolar

SMILES: COc1cc([C@@H]2c3cc4c(cc3[C@@H](O[C@@H]3O[C@@H]5CO[C@@H](C)O[C@H]5[C@H](O)[C@H]3O)[C@H]3COC(=O)[C@H]23)OCO4)cc(OC)c1O [etoposide]
- effect on the anti-proliferative rapamycin dose response curve [4]: potentiate the anti-proliferative activity of rapamycin
- cytotoxicity in cell viability assay (Cell viability assay; concentrations up to ten micromolar): non-cytotoxic

SMILES: COc1c(C)c2c(c(O)c1C/C=C(\C)CCC(=O)O)C(=O)OC2 [mycophenolic acid]
- effect on the anti-proliferative rapamycin dose response curve [3]: potentiates the anti-proliferative activity of rapamycin

SMILES: CO[C@H]1C[C@@H]2CC[C@@H](C)[C@@](O)(O2)C(=O)C(=O)N2CCCC[C@H]2C(=O)O[C@H]([C@H](C)C[C@@H]2CC[C@@H](O)[C@H](OC)C2)CC(=O)[C@H](C)/C=C(\C)[C@@H](O)[C@@H](OC)C(=O)[C@H](C)C[C@H](C)/C=C/C=C/C=C/1C [rapamycin]
- concentration relative to the solubility of sirolimus in water ([2]; 4 mg/ml formulation with PEG 200, ethanol and water): about four hundred to about one thousand times higher

SMILES: CC[C@@]1(O)C(=O)OCc2c1cc1n(c2=O)Cc2cc3c(CN(C)C)c(O)ccc3nc2-1 [topotecan]
- effect on the anti-proliferative rapamycin dose response curve [4]: potentiate the anti-proliferative activity of rapamycin
- cytotoxicity in cell viability assay (Cell viability assay; concentrations up to one micromolar): non-cytotoxic

SMILES: CC(/C=C/C(=O)NO)=C\[C@@H](C)C(=O)c1ccc(N(C)C)cc1 [trichostatin A]
- inhibition of human coronary artery smooth muscle cell proliferation [6]: completely inhibit
- IC50 ([6]; human coronary artery smooth muscle cells, read-out: anti-proliferative IC50): ~6 nM
